Results from patent US20070021434A1, “NON-NUCLEOSIDE ANTI-HEPACIVIRUS AGENTS AND USES THEREOF” (Migenix Inc., priority 2005, published 2007).
pIC50: −log10 of the molar value.

Target: HCV RdRp (NS5B) (UniProt P26663)
Format: biochemical, hepatitis C virus

Chain of HCV RdRp (NS5B) (P26663 whole entry, looked up): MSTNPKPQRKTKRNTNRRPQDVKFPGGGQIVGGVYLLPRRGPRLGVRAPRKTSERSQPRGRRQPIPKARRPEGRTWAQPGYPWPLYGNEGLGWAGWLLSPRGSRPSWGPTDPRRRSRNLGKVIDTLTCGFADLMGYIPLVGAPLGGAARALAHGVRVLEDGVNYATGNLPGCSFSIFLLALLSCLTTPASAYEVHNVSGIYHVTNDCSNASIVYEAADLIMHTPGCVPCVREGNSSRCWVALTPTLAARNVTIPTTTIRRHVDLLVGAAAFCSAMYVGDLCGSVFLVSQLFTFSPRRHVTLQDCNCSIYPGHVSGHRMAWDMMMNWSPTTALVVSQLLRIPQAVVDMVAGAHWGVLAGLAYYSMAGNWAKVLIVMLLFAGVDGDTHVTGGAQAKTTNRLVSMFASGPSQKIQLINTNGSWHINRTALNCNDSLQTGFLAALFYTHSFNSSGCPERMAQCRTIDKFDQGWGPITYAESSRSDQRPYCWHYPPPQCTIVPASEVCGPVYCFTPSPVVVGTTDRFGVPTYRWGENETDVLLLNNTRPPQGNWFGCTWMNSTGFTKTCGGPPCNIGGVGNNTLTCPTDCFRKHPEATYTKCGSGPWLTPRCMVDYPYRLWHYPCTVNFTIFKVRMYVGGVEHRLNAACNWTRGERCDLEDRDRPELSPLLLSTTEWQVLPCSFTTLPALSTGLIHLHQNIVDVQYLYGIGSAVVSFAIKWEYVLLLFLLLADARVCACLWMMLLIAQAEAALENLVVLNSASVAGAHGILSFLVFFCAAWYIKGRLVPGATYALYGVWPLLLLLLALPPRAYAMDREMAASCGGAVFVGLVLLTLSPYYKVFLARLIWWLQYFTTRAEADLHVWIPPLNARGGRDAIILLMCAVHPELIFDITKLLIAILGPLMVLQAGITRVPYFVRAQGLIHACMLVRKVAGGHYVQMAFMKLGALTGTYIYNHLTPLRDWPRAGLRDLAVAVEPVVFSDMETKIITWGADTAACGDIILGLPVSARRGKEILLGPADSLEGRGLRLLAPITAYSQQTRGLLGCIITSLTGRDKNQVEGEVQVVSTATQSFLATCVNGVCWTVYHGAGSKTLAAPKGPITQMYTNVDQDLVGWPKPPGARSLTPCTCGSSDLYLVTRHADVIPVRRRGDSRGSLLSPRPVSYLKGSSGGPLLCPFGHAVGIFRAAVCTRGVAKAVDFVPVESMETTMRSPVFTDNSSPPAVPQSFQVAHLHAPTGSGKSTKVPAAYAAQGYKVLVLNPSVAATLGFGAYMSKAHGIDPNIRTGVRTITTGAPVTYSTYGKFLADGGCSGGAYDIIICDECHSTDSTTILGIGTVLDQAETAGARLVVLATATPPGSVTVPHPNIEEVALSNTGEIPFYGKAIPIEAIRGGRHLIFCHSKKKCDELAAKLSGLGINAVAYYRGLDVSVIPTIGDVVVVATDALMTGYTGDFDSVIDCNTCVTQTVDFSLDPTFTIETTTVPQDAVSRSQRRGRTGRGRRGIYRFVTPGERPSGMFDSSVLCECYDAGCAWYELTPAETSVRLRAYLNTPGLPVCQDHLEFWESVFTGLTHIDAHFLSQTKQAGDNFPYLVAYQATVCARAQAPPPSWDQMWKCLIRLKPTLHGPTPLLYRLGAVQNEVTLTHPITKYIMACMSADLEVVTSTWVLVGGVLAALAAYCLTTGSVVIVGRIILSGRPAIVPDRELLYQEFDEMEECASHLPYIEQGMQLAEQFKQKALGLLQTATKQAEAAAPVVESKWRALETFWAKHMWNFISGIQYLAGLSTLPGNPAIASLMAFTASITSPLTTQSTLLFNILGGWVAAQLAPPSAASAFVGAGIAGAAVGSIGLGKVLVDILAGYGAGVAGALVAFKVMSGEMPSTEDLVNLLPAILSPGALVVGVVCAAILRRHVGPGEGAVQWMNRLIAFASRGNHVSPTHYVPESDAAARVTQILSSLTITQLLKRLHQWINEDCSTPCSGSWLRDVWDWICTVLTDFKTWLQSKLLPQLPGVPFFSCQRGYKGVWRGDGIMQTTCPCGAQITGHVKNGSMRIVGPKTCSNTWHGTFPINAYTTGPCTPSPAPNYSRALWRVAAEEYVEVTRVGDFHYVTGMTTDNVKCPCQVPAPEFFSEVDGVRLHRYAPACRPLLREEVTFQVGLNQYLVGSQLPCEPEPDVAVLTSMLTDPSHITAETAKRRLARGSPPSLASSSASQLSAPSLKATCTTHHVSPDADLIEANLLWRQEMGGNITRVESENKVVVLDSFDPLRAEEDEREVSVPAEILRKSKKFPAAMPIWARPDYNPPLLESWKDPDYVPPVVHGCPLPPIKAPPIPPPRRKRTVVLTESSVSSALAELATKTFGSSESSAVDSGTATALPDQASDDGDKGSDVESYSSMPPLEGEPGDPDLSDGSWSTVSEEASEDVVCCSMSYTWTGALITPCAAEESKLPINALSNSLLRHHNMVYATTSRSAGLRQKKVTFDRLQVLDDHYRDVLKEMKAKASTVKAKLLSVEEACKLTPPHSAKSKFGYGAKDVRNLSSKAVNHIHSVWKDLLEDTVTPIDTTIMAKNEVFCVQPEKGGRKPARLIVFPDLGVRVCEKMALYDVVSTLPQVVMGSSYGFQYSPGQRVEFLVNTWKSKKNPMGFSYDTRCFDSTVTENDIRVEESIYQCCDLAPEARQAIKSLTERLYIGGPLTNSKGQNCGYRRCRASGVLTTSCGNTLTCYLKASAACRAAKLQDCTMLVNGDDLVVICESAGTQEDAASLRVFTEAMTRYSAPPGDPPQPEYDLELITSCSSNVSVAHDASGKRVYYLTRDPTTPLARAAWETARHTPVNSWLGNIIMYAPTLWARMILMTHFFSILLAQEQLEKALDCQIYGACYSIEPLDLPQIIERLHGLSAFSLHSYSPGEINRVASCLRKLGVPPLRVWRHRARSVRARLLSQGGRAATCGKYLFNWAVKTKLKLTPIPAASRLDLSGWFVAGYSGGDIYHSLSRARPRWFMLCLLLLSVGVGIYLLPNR

Row | SMILES | pIC50
1 | NCCC[C@@H](NC(=O)OCC1c2ccccc2-c2ccccc21)C(=O)Nc1ccc(CN(C(=O)c2ccco2)C2CCCCC2)cc1 [Compound 16, (R)-[4-AMINO-1-(4-{[CYCLOHEXYL-(FURAN-2-CARBONYL)-AMINO]-METHYL}-PHENYLCARBAMOYL)-BUTYL]-CARBAMIC ACID 9H-FLUOREN-9-YLMETHYL ESTER] | > 5.00
2 | Cc1ccc(NC(=O)C(CCCCN)NC(=O)CC2c3ccccc3-c3ccccc32)cc1 [Compound 53, (S)-6-AMINO-2-(2-9H-FLUOREN-9-YL-ACETYLAMINO)-HEXANOIC ACID P-TOLYLAMIDE] | < 4.30
3 | Cc1ccc(NC(=O)[C@H](CCCCN)NC(=O)CNc2ccccc2F)cc1 [Compound 359, (S)-6-AMINO-2-[2-(2-FLUORO-PHENYLAMINO)-ACETYLAMINO]-HEXANOIC ACID P-TOLYLAMIDE] | < 4.30
4 | NCCCC[C@H](NC(=O)Nc1ccc2c(c1)Cc1ccccc1-2)C(=O)Nc1ccc(C2CCCCC2)cc1 [Compound 226, (S)-6-AMINO-2-[3-(9H-FLUOREN-2-YL)-UREIDO]-HEXANOIC ACID (4-CYCLOHEXYL-PHENYL)-AMIDE] | < 4.30
5 | Cc1ccc(NC(=O)C2CC(OC(=O)CCN)CN2C(=O)OCC2c3ccccc3-c3ccccc32)cc1 [Compound 130, (S)-(4-(R)-(3-AMINO-PROPIONYLOXY)-2-P-TOLYLCARBAMOYL-PYRROLIDINE-1-CARBOXYLIC ACID 9H-FLUOREN-9-YLMETHYL ESTER)] | < 4.30
6 | COc1ccc(CNC(=O)N[C@@H](CCCCN)C(=O)Nc2ccc(C)cc2)cc1 [Compound 139, (S)-6-AMINO-2-[3-(4-METHOXY-BENZYL)-UREIDO]-HEXANOIC ACID P-TOLYLAMIDE] | < 4.30
7 | Cc1ccc(NC(=O)C(CCCCN)NC(=O)Nc2ccc(CN(C)c3ccc(C)cc3)cc2)cc1 [Compound 292, (S)-6-AMINO-2-(3-{4-[(METHYL-P-TOLYL-AMINO)-METHYL]-PHENYL}-UREIDO)-HEXANOIC ACID P-TOLYLAMIDE] | < 4.30
8 | Cc1cc2cc(NC(=O)CN(CCCCN)C(=O)OCC3c4ccccc4-c4ccccc43)ccc2[nH]1 [Compound 295, (4-AMINO-BUTYL)-[(2-METHYL-1H-INDOL-5-YLCARBAMOYL)-METHYL]-CARBAMIC ACID 9H-FLUOREN-9-YLMETHYL ESTER] | > 5.00
9 | Cc1ccc(NC(=O)C2CC(O)CN2C(=O)OCC2c3ccccc3-c3ccccc32)cc1 [Compound 87, (4R,S)-4-HYDROXY-2-P-TOLYLCARBAMOYL-PYRROLIDINE-1-CARBOXYLIC ACID 9H-FLUOREN-9-YLMETHYL ESTER] | < 4.30
10 | NCCCC[C@H](NC(=O)OCC1c2ccccc2-c2ccccc21)C(=O)Nc1ccc(C2CCCCC2)cc1 [Compound 107, (S)-[5-AMINO-1-(4-CYCLOHEXYL-PHENYLCARBAMOYL)-PENTYL]-CARBAMIC ACID 9H-FLUOREN-9-YLMETHYL ESTER] | > 5.00
11 | Cc1ccc(NC(=O)[C@H](CCCCN)NC(=O)CNc2cccc(Cl)c2)cc1 [Compound 362, (S)-6-AMINO-2-[2-(3-CHLORO-PHENYLAMINO)-ACETYLAMINO]-HEXANOIC ACID P-TOLYLAMIDE] | < 4.30
12 | NCCCC[C@H](NC(=O)OCC1c2ccccc2-c2ccccc21)C(=O)Nc1cccc2[nH]ccc12 [Compound 208, (S)-[5-AMINO-1-(1H-INDOL-4-YLCARBAMOYL)-PENTYL]-CARBAMIC ACID 9H-FLUOREN-9-YLMETHYL ESTER] | > 5.00
13 | Cc1ccc(NC(=O)C(CC(=O)O)NC(=O)OCC2c3ccccc3-c3ccccc32)cc1 [Compound 371, (R)-3-(9H-FLUOREN-9-YLMETHOXYCARBONYLAMINO)-NR-P-TOLYL-[…]] | < 4.30
14 | CCOC(=O)c1ccc(NC(=O)NC(CCCCN)C(=O)Nc2ccc(C)cc2)cc1 [Compound 245, (S)-4-[3-(5-AMINO-1-P-TOLYLCARBAMOYL-PENTYL)-UREIDO]-BENZOIC ACID ETHYL ESTER] | < 4.30
15 | COc1cccc(CNCC(=O)N[C@@H](CCCCN)C(=O)Nc2ccc(C)cc2)c1 [Compound 342, (S)-6-AMINO-2-[2-(3-METHOXY-BENZYLAMINO)-ACETYLAMINO]-HEXANOIC ACID P-TOLYLAMIDE] | < 4.30
16 | Cc1ccc(NC(=O)[C@H](CCCCN)NC(=O)CNc2cccc(C)c2)cc1 [Compound 355, (S)-6-AMINO-2-(2-M-TOLYLAMINO-ACETYLAMINO)-HEXANOIC ACID P-TOLYLAMIDE] | < 4.30
17 | Cc1ccc(NC(=O)C(CCCCN)NC(=O)NCCc2ccc(-c3ccccc3)cc2)cc1 [Compound 76, (S)-6-AMINO-2-[3-(2-BIPHENYL-4-YL-ETHYL)-UREIDO]-HEXANOIC ACID P-TOLYLAMIDE] | 4.30 to 5.00
18 | CCNCC(=O)N1CCN(C(=O)OCC2c3ccccc3-c3ccccc32)C(CC(=O)Nc2ccc(C)cc2)C1 (centres unmarked) [Compound 187, 4-(2-ETHYLAMINO-ACETYL)-2-(P-TOLYLCARBAMOYL-METHYL)-PIPERAZINE-1-CARBOXYLIC ACID 9H-FLUOREN-9-YLMETHYL ESTER] | 4.30 to 5.00
19 | NCCCC[C@H](NC(=O)OCC1c2ccccc2-c2ccccc21)C(=O)Nc1ccc(-c2ccccc2)cc1 [Compound 143, (S)-[5-AMINO-1-(BIPHENYL-4-YLCARBAMOYL)-PENTYL]-CARBAMIC ACID 9H-FLUOREN-9-YLMETHYL ESTER] | > 5.00

Row | SMILES | pIC50
20 | CC(=O)NCC(=O)N1CCN(C(=O)OCC2c3ccccc3-c3ccccc32)C(CC(=O)Nc2ccc(C)cc2)C1 (centres unmarked) [Compound 186, 4-(2-ACETYLAMINO-ACETYL)-2-(P-TOLYLCARBAMOYL-METHYL)-PIPERAZINE-1-CARBOXYLIC ACID 9H-FLUOREN-9-YLMETHYL ESTER] | < 4.30
21 | Cc1ccc(NC(=O)C(CCN)NC(=O)OCC2c3ccccc3-c3ccccc32)cc1 [Compound 108, (S)-(3-AMINO-1-P-TOLYLCARBAMOYL-PROPYL)-CARBAMIC ACID 9H-FLUOREN-9-YLMETHYL ESTER] | < 4.30
22 | Cc1ccc(NC(=O)[C@H](CCCCN)NC(=O)COc2ccc(Oc3ccccc3)cc2)cc1 [Compound 333, (S)-6-AMINO-2-[2-(4-PHENOXY-PHENOXY)-ACETYLAMINO]-HEXANOIC ACID P-TOLYLAMIDE] | < 4.30
23 | CN1CCN(C(=O)[C@H](CCCCN)NC(=O)Nc2ccc(OCc3ccccc3)cc2)CC1 [Compound 289, (S)-1-[5-AMINO-1-(4-METHYL-PIPERAZINE-1-CARBONYL)-PENTYL]-3-(4-BENZYLOXY-PHENYL)-UREA] | < 4.30
24 | Cc1ccc(NC(=O)C(CCCCN)NS(=O)(=O)c2cc(S(=O)(=O)c3ccccc3)cs2)cc1 [Compound 388, (S)-6-AMINO-2-(4-BENZENESULFONYL-THIOPHENE-2-SULFONYLAMINO)-HEXANOIC ACID P-TOLYLAMIDE] | < 4.30
25 | NCCCC[C@H](NC(=O)Cn1cnc2c(NC(=O)c3ccccc3)ncnc21)C(=O)Nc1ccc(CN(C(=O)c2ccco2)C2CCCCC2)cc1 [Compound 46, (S)-FURAN-2-CARBOXYLIC ACID (4-{6-AMINO-2-[2-(6-BENZOYLAMINO-PURIN-9-YL)-ACETYLAMINO]-HEXANOYLAMINO}-BENZYL)-CYCLOHEXYL-AMIDE] | 4.30 to 5.00
26 | Cc1ccc(NC(=O)C(CCCCN)NC(=O)Nc2cccc(-c3nc4ccccc4o3)c2)cc1 [Compound 271, (S)-6-AMINO-2-[3-(3-BENZOOXAZOL-2-YL-PHENYL)-UREIDO]-HEXANOIC ACID P-TOLYLAMIDE] | > 5.00
27 | NCCCC[C@H](NC(=O)Nc1cccc2ccccc12)C(=O)Nc1ccc(CN(C(=O)c2ccco2)C2CCCCC2)cc1 [Compound 31, (S)-FURAN-2-CARBOXYLIC ACID {4-[6-AMINO-2-(3-NAPHTHALEN-1-YL-UREIDO)-HEXANOYLAMINO]-BENZYL}-CYCLOHEXYL-AMIDE] | 4.30 to 5.00
28 | Cc1ccc(NC(=O)C(CCCCN)NC(=O)NCc2ccccc2)cc1 [Compound 168, (R)-6-AMINO-2-(3-BENZYL-UREIDO)-HEXANOIC ACID P-TOLYLAMIDE] | < 4.30
29 | O=CNCCCC[C@H](NC(=O)OCC1c2ccccc2-c2ccccc21)C(=O)Nc1ccc(Cl)c(Cl)c1 [Compound 217, (S)-[1-(3,4-DICHLORO-PHENYLCARBAMOYL)-5-FORMYLAMINO-PENTYL]-CARBAMIC ACID 9H-FLUOREN-9-YLMETHYL ESTER] | 4.30 to 5.00
30 | Cc1ccc(NC(=O)C(CCC(=O)O)NC(=O)OCC2c3ccccc3-c3ccccc32)cc1 [Compound 372, (S)-4-(9H-FLUOREN-9-YLMETHOXYCARBONYLAMINO)-4-P-TOLYLCARBAMOYL-BUTYRIC ACID] | < 4.30
31 | Cc1ccc(NC(=O)C(Cc2ccc(CN)cc2)NC(=O)Nc2ccc3c(c2)Cc2ccccc2-3)cc1 [Compound 147, (S)-3-(4-AMINOMETHYL-PHENYL)-2-[3-(9H-FLUOREN-2-YL)-UREIDO]-N-P-TOLYL-PROPIONAMIDE] | > 5.00
32 | Cc1ccc(NC(=O)C(CCCCN)NC(=O)CNc2cccc(C(F)(F)F)c2)cc1 [Compound 364, (S)-6-AMINO-2-[2-(3-TRIFLUOROMETHYL-PHENYLAMINO)-ACETYLAMINO]-HEXANOIC ACID P-TOLYLAMIDE] | < 4.30
33 | COc1ccccc1NCC(=O)N[C@@H](CCCCN)C(=O)Nc1ccc(C)cc1 [Compound 357, (S)-6-AMINO-2-[2-(2-METHOXY-PHENYLAMINO)-ACETYLAMINO]-HEXANOIC ACID P-TOLYLAMIDE] | < 4.30
34 | COc1ccc(S(=O)(=O)N[C@@H](CCCCN)C(=O)Nc2ccc(C)cc2)cc1OC [Compound 386, (S)-6-AMINO-2-(3,4-DIMETHOXY-BENZENESULFONYLAMINO)-HEXANOIC ACID P-TOLYLAMIDE] | < 4.30
35 | CC(C)(C)c1ccc(NC(=O)[C@H](Cc2ccc(CN)cc2)NC(=O)NCc2ccccc2)cc1 [Compound 148, (S)-3-(4-AMINOMETHYL-PHENYL)-2-(3-BENZYL-UREIDO)-N-(4-TERT-BUTYL-PHENYL)-PROPIONAMIDE] | < 4.30
36 | Cc1ccc(NC(=O)C(CCCCN)NS(=O)(=O)c2ccc(C(F)(F)F)cc2)cc1 [Compound 397, (S)-6-AMINO-2-(4-TRIFLUOROMETHYL-BENZENESULFONYLAMINO)-HEXANOIC ACID P-TOLYLAMIDE] | < 4.30
37 | NCCCCC[C@H](NC(=O)OCC1c2ccccc2-c2ccccc21)C(=O)Nc1ccc(C2CCCCC2)cc1 [Compound 116, (S)-[6-AMINO-1-(4-CYCLOHEXYL-PHENYLCARBAMOYL)-HEXYL]-CARBAMIC ACID 9H-FLUOREN-9-YLMETHYL ESTER] | > 5.00
38 | N[C@@H](CNC(=O)OCC1c2ccccc2-c2ccccc21)C(=O)Nc1ccc(CN(C(=O)c2ccco2)C2CCCCC2)cc1 [Compound 17, (S)-[2-AMINO-2-(4-{[CYCLOHEXYL-(FURAN-2-CARBONYL)-AMINO]-METHYL}-PHENYLCARBAMOYL)-ETHYL]-CARBAMIC ACID 9H-FLUOREN-9-YLMETHYL ESTER] | 4.30 to 5.00
